These results are taken from patent US20020155192A1, “Yeast transport isoforms” (priority 2000, published 2002).

Read-outs that look alike come from different tables or passages of the source.

Common to all, as to assay type: biochemical
Assay [1] concerns the target T1, Odc1p (Saccharomyces cerevisiae, UniProt Q03028).
T1 construct: made in house; host or cells: S. cerevisiae odc1Δodc2Δ (YPH499 background) carrying pYES2-based pODC1; purified from mitochondria on Ni-NTA agarose
T1 sequence (Q03028 1-310): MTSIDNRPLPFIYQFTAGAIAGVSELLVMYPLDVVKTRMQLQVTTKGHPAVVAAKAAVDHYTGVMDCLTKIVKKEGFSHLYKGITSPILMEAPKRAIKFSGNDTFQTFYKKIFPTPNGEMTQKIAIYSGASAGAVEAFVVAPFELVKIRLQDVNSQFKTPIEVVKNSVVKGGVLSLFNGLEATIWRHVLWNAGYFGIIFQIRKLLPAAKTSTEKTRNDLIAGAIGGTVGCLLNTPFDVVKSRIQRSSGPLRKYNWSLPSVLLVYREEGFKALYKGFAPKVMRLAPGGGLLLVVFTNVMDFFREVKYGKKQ
The assay is described as follows: Dependence on internal substrate of [14C]oxoglutarate uptake into proteoliposomes reconstituted with recombinant Odc1p. The conditions noted are these: for [14C]oxoglutarate transport: proteoliposomes preloaded with 20 mM internal substrate, 0.6 mM [14C]oxoglutarate, 45 seconds. How it is done:
(§1) Reconstitution of the ODC proteins into liposomes—Purified ODC proteins were reconstituted by cyclic removal of the detergent with a hydrophobic column (13). The composition of the initial mixture used for reconstitution was: 200 μl of purified isoform (0.3-0.4 μg of protein), 70 μl of 10% Triton X-114, 100 μl of 10% phospholipids in the form of sonicated liposomes, 20 mM oxoglutarate (except where otherwise indicated), 10 mM Pipes (pH 7.0), 0.7 mg of cardiolipin (Sigma) and water to a final volume of 700 μl. These components were mixed thoroughly, and the mixture was recycled 13 times through an Amberlite column (Supelco) (3.0 cm×0.5 cm) preequilibrated with a buffer containing 10 mM Pipes (pH 7.0) and with the substrate at the same concentration as in the starting mixture. All operations were performed at 4° C., except the passages through Amberlite, which were carried out at room temperature.
(§2) External substrate was removed from proteoliposomes on a Sephadex G-75 column preequilibrated with buffer F (50 mM NaCl and 10 mM PIPES, pH 7.0). Transport at 25° C. was started by adding [^14C]oxoglutarate (unless otherwise indicated) to the proteoliposomes, and terminated by addition of 30 mM pyridoxal 5′-phosphate and 10 mM bathophenanthroline (the “inhibitor-stop” method (13)). In controls, inhibitors were added with the labelled substrate. The external radioactivity was removed on Sephadex G-75 and the internal radioactivity was measured. […] The initial rate of transport was calculated in mmol/min per g protein from the time course of isotope equilibration (13). Various other transport activities were also assayed by the inhibitor-stop method. For efflux measurements, the internal substrate pool of the proteoliposomes was made radioactive by carrier-mediated exchange equilibration (13) with 0.1 mM [^14C]oxoglutarate added at high specific radioactivity. After 60 min, the residual external radioactivity was removed by passing the proteoliposomes again through a column of Sephadex G-75. Efflux was started by adding unlabelled external substrate or buffer F alone and terminated by adding the inhibitors indicated above.
(§3) The substrate specificity of purified Odc1p and Odc2p was investigated further by measuring the uptake of [^14C]oxoglutarate into proteoliposomes which had been preloaded with various substrates.
(§4) Proteoliposomes were preloaded internally with various substrates (concentration, 20 mM). Transport was started by adding [^14C]oxoglutarate (final concentration, 0.6 mM) and terminated after 45 seconds.

The target in assay [2] is T2, Odc2p (Saccharomyces cerevisiae, UniProt Q99297).
T2 construct: made in house; host or cells: S. cerevisiae odc1Δodc2Δ (YPH499 background) carrying pYES2-based pODC2; purified from mitochondria on Ni-NTA agarose
T2 sequence (Q99297 1-307): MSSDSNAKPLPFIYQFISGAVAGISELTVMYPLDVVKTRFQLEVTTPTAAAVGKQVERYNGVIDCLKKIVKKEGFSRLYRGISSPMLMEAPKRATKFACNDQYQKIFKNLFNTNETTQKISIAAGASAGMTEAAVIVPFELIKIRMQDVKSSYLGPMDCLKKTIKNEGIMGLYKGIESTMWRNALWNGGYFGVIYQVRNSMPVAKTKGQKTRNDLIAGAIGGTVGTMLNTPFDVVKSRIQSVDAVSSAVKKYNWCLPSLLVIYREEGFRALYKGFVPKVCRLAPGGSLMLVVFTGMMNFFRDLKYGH
The assay is described as follows: Dependence on internal substrate of [14C]oxoglutarate uptake into proteoliposomes reconstituted with recombinant Odc2p. The conditions noted are these: for [14C]oxoglutarate transport: proteoliposomes preloaded with 20 mM internal substrate, 0.6 mM [14C]oxoglutarate, 45 seconds. On the procedure: as §1, §2, §3, §4

Assay [3] has as its target T1, Odc1p. The assay is described as follows: Effect of inhibitors and external compounds on the [14C]oxoglutarate/oxoglutarate exchange by proteoliposomes reconstituted with Odc1p. The conditions noted are these: for effect of oxomonocarboxylates on the rate of uptake of 0.4 mM oxoglutarate (in words): 8 mM, 20 times greater than the substrate, data not shown. How it is done:
FIG. 5. Effect of dicarboxylates and 2-oxodicarboxylates with different carbon chain length on the rate of [^14C]oxoglutarate uptake into proteoliposomes reconstituted with recombinant Odc1p. Proteoliposomes were preloaded with 20 mM oxoglutarate and reconstituted with recombinant Odc1p. Transport was initiated by the addition of 0.4 mM [^14C]oxoglutarate and terminated after 45 seconds. Oxalate, malonate, succinate, glutarate, adipate, pimelate, suberate (▪) and the corresponding 2-oxoacids (●) were added simultaneously with [1^4C]oxoglutarate at 4.0 mM concentration.
as §1, §2
(§5) In addition, the ability of non-radioactive potential substrates to inhibit the oxoglutarate/oxoglutarate exchange was examined.
Proteoliposomes were preloaded internally with 20 mM oxoglutarate and transport was initiated by the addition of 0.4 mM [^14C]oxoglutarate.

Assay [4] has as its target T2, Odc2p. The assay is described as follows: Effect of inhibitors and external compounds on the [14C]oxoglutarate/oxoglutarate exchange by proteoliposomes reconstituted with Odc2p. As to conditions: for effect of oxomonocarboxylates on the rate of uptake of 0.4 mM oxoglutarate (in words): 8 mM, 20 times greater than the substrate. On the procedure: as §1, §2, §5
Proteoliposomes were preloaded internally with 20 mM oxoglutarate and transport was initiated by the addition of 0.4 mM [^14C]oxoglutarate. The incubation time was 45 seconds. Thiol reagents and α-cyanocinnamate were added 2 min before the labelled substrate; the other inhibitors and external substrates were added together with [^14C]oxoglutarate. The final concentration of the inhibitors was 4 mM, except for mercurials (10 μM), carboxyatractyloside (0.1 mM), N-ethylmaleimide and α-cyanocinnamate (2 mM).

The mark [5] stands for this setting: Odc1p, proteoliposomes preloaded with various substrates.
[6] abbreviates: Odc2p, proteoliposomes preloaded with various substrates.
[7] abbreviates: Odc1p, added with 0.4 mM [14C]oxoglutarate, 4.0 mM in FIG. 5, partly data not shown.

On to `O=C(O)CCCCCCC(=O)O` [Suberate], for which the “[14C]oxoglutarate transport” value on Odc1p [1] (Odc1p) is on record as 2.8 mmol/min per g protein; on Odc2p [2] (Odc2p) it was 0.4 mmol/min per g protein. The “[14C]oxoglutarate uptake with the internal substrate (in words)” value (“[14C]oxoglutarate uptake” below) on Odc1p [1] (setting [5]) and at Odc2p [2] (setting [6]) was “very low activity” each time. For the same compound, the “effect of non-radioactive potential substrates on the rate of oxoglutarate uptake (in words)” value on Odc1p [3] and at Odc2p [4] was “virtually no effect” throughout.
`CCC(=O)C(=O)O` [2-oxobutyrate]: the “[14C]oxoglutarate uptake” value at Odc1p [1] (setting [5]) and at Odc2p [2] (setting [6]) was “no exchange” each time. Further, the “effect of oxomonocarboxylates on the rate of uptake of 0.4 mM oxoglutarate (in words)” value is “did not influence” at Odc1p [3] (Odc1p) and “did not influence” at Odc2p [4] (Odc2p, data not shown).
Consider `O=C(O)/C=C\C(=O)O` [Maleate], for which the figures for the “[14C]oxoglutarate transport” value on Odc1p [1] (Odc1p) and on Odc2p [2] (Odc2p) were 7.1 mmol/min per g protein and 2.6 mmol/min per g protein, respectively. The “[14C]oxoglutarate uptake” value on Odc1p [1] (setting [5]) and on Odc2p [2] (setting [6]) was “very low activity” throughout. For the same compound, the “effect of non-radioactive potential substrates on the rate of oxoglutarate uptake (in words)” value at Odc1p [3] (setting [7]) was “no effect”; on Odc2p [4] (Odc2p, data not shown) it was “no effect”.
As for `O=C(O)C[C@@H](O)C(=O)O` [D-malate], the “[14C]oxoglutarate transport” value on Odc1p [1] (Odc1p) is 52.1 mmol/min per g protein; at Odc2p [2] (Odc2p), 10.5 mmol/min per g protein. Also, the “[14C]oxoglutarate uptake” value on Odc1p [1] (setting [5]) and at Odc2p [2] (setting [6]) was “taken up efficiently” each time.
Consider `CC[C@H](O)C(=O)O` [2-hydroxybutyrate], for which the “[14C]oxoglutarate uptake” value on Odc1p [1] (setting [5]) and on Odc2p [2] (setting [6]) was “no exchange” throughout.
In the case of `O=C(O)CC(=O)O` [Malonate], the “[14C]oxoglutarate transport” value on Odc1p [1] (Odc1p) was determined as 4.8 mmol/min per g protein; at Odc2p [2] (Odc2p) it was 2.2 mmol/min per g protein. Further, the “[14C]oxoglutarate uptake” value on Odc1p [1] (setting [5]) and on Odc2p [2] (setting [6]) was “very low activity” each time. The “effect of non-radioactive potential substrates on the rate of oxoglutarate uptake (in words)” value was “virtually no effect” at Odc1p [3] (setting [7]) and “virtually no effect” on Odc2p [4] (Odc2p, data not shown).
Take `O=C(O)CCCCC(=O)O` [Adipate]: the “[14C]oxoglutarate transport” value at Odc1p [1] (Odc1p) came to 65.0 mmol/min per g protein; on Odc2p [2] (Odc2p), 16.7 mmol/min per g protein. The “[14C]oxoglutarate uptake” value at Odc1p [1] (setting [5]) and on Odc2p [2] (setting [6]) was “taken up efficiently” each time. In addition, the “effect of non-radioactive potential substrates on the rate of oxoglutarate uptake (in words)” value on Odc1p [3] and at Odc2p [4] was “significant inhibition” each time.
For the compound `NC(CCCC(=O)O)C(=O)O` (centres unmarked) [2-aminoadipate], the “[14C]oxoglutarate uptake” value on Odc1p [1] (setting [5]) and at Odc2p [2] (setting [6]) was “no exchange” in each case.
`Nc1ncnc2c1ncn2[C@@H]1O[C@H](COP(=O)(O)OP(=O)(O)OP(=O)(O)O)[C@@H](O)[C@H]1O` [ATP]: the “[14C]oxoglutarate uptake” value at Odc1p [1] (setting [5]) and at Odc2p [2] (setting [6]) was “no exchange” in each case.
As for `O=S(O)(O)=S` [thiosulfate], the “[14C]oxoglutarate uptake” value at Odc1p [1] and on Odc2p [2] was “no exchange” each time.
`O=C(O)C(=O)O` [oxalate]: the “[14C]oxoglutarate uptake” value at Odc1p [1] (setting [5]) and on Odc2p [2] (setting [6]) was “no exchange” throughout. In addition, the “effect of non-radioactive potential substrates on the rate of oxoglutarate uptake (in words)” value is recorded as “virtually no effect” at Odc1p [3] (setting [7]) and “virtually no effect” at Odc2p [4] (Odc2p, data not shown).
`CCCC(=O)C(=O)O` [2-oxovalerate]: the “[14C]oxoglutarate uptake” value on Odc1p [1] (setting [5]) and at Odc2p [2] (setting [6]) was “no exchange” each time. For the same compound, the “effect of oxomonocarboxylates on the rate of uptake of 0.4 mM oxoglutarate (in words)” value is on record as “did not influence” at Odc1p [3] (Odc1p) and “did not influence” on Odc2p [4] (Odc2p, data not shown).
For the compound `C=C1[C@@H]2CC[C@H]3[C@]4(C)C[C@H](O[C@@H]5O[C@H](CO)[C@@H](OS(=O)(=O)O)[C@H](OS(=O)(=O)O)[C@H]5OC(=O)CC(C)C)CC(C(=O)O)(C(=O)O)[C@H]4CC[C@]3(C2)[C@H]1O` [Carboxyatractyloside], the “Inhibition (%) of [14C]oxoglutarate/oxoglutarate exchange” value was determined as 7% at Odc1p [3] (Odc1p, 20 mM internal oxoglutarate, 0.4 mM [14C]oxoglutarate, 45 seconds, inhibitors 4 mM, except mercurials 10 μM, carboxyatractyloside 0.1 mM, N-ethylmaleimide and α-cyanocinnamate 2 mM); 10% at Odc2p [4] (Odc2p, 20 mM internal oxoglutarate, 0.4 mM [14C]oxoglutarate, 45 seconds, inhibitors 4 mM, except mercurials 10 μM, carboxyatractyloside 0.1 mM, N-ethylmaleimide and α-cyanocinnamate 2 mM). Also, the “inhibition of [14C]oxoglutarate/oxoglutarate exchange (in words)” value is listed as “little or no effect” against Odc1p [3] (Odc1p, Table III) and “little or no effect” against Odc2p [4] (Odc2p, Table III).
As to `O=C(O)/C=C/C(=O)O` [Fumarate], the “[14C]oxoglutarate transport” value was 8.9 mmol/min per g protein on Odc1p [1] (Odc1p) and 2.4 mmol/min per g protein at Odc2p [2] (Odc2p). For the same compound, the “[14C]oxoglutarate uptake” value at Odc1p [1] (setting [5]) and on Odc2p [2] (setting [6]) was “very low activity” in each case. For the same compound, the “effect of non-radioactive potential substrates on the rate of oxoglutarate uptake (in words)” value is reported as “no effect” at Odc1p [3] (setting [7]) and “no effect” on Odc2p [4] (Odc2p, data not shown).
In the case of `NC(CCCCC(=O)O)C(=O)O` (centres unmarked) [2-aminopimelate], the “[14C]oxoglutarate uptake” value at Odc1p [1] (setting [5]) and at Odc2p [2] (setting [6]) was “no exchange” in each case.
`O=C(O)[C@H](O)[C@@H](O)C(=O)O` [L-tartrate]: the “effect of non-radioactive potential substrates on the rate of oxoglutarate uptake (in words)” value on Odc1p [3] (setting [7]) was “more efficiently than succinate”; at Odc2p [4] (Odc2p, data not shown) it was “more efficiently than succinate”.
